Laboratory results reported in patent US20090232831A1, “METHODS AND COMPOSITIONS FOR THE TREATMENT OR PREVENTION OF HUMAN IMMUNODEFICIENCY VIRUS INFECTION” (priority 2008, published 2009).

Legend:
2G12 complex = assay: KD,surf of 2G12 complex on glycan-printed normal-NHS-density slide; assay type: binding; settings: immobilized on normal-NHS-density slide; saturated value
Protocol: To further test its multivalent efficacy, 17 was immobilized onto a normal-NHS-density slide (FIG. 3d) at varying printing concentrations.
Second generation Man9 dendron 17 on normal NHS density slide: Similar procedure as for normal density Man4 slide was used. Derivative of 17 with a linker connecting free amine was used for printing. The printing concentrations are 100, 80, 60, 40, 20, 10, 8, 6, 4, 2, 1, 0.8, 0.6, 0.4, 0.2, 0.1, 0.08, 0.06, 0.04, and 0.02 μM. The KD,surf of 2G12 complex was obtained (see Table 4) as previously described.
Determination of KD,surf of glycodendron 17. The procedure is the same as that disclosed in Liang et al., “Quantitative analysis of carbohydrate-protein interactions using glycan microarrays: determination of surface and solution dissociation constants.” J Am Chem Soc 129:11177-11184 (2007), which is hereby incorporated by reference as if fully disclosed herein.

gp120/DC-SIGN-Fc = target: T1, gp120/DC-SIGN-Fc (Homo sapiens, UniProt Q9NNX6); assay: gp120/Fc-DC-SIGN competition ELISA; assay type: binding
T1 construct: fused on or other part: Human IgG Fc fused on as a dimerising and detection handle (detected with anti-human IgG, Fc-gamma-specific antibody)
T1 sequence (Q9NNX6 250-404 limits assumed): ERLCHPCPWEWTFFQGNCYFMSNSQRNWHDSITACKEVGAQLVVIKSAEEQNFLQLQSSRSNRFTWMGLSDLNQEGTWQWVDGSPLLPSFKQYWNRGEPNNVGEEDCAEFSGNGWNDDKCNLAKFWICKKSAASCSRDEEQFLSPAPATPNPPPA
Protocol: It was then determined whether oligomannose dendrons are able to interfere with the binding between gp120 and DC-SIGN, which is likely to be a key step for dendritic cell-mediated CD4 T cell HIV infection. Gp120/Fc-DC-SIGN ELISA was performed, in a similar setting as gp120/2G12 ELISA, to evaluate the inhibition activity of glycodendrons 14 and 17.
Competition ELISA for Fc-DC-SIGN. DC-SIGN competitions were done with 1.5 μg/ml Fc-DC-SIGN as described above with a few modifications since DC-SIGN is a C-type lectin that requires Ca^2+ for binding. A Tris (10 mM, pH7.8) buffer containing NaCl (150 mM), i.e., TBS, replaced PBS in the abovementioned buffers used for coating, blocking and washing. After the initial wash step, CaCl2 (10 mM) was included in the blocking solution and all subsequent incubation and wash buffers until substrate addition. DC-SIGN-Fc binding was detected with an alkaline phosphatase-conjugated goat anti-human IgG, Fcγ-specific, Ab (Jackson ImmunoResearch Laboratories, Inc.) diluted 1:1000.

Row | Molecule | Kd (2G12 complex) [mM] | IC50 (gp120/DC-SIGN-Fc) [mM] | inhibition activity range (gp120/DC-SIGN-Fc; gp120/Fc-DC-SIGN ELISA)
1 | Man9 [Compound 2] | 0.00083 | – | –
2 | O=C[C@@H](O)[C@@H](O)[C@H](O)[C@H](O)CO [D-Mannose, reference compound] | – | 8.5 | millimolar range
